Measurements published in patent publication US10155987B2, “Methods of predicting resistance to JAK inhibitor therapy” (Dana-Farber Cancer Institute, Inc., priority 2012, dated 2018).

Columns and labels:
[1] = tested on: BaF3.EpoR cells expressing JAK2V617F with Y931C, G935R, R938L, 1960V or E985K mutation; assay: Cell growth in response to JAK2 inhibitors, all five resistance mutants (stated together); format: cell-based, murine; conditions: summary statement
Experimental: Cell growth in response to various drug concentrations was measured by trypan blue (Sigma) exclusion or with the CellTiter 96® AQueous One Solution Cell Proliferation Assay reagent (Promega, Madison, Wis.).
BaF3.EpoR cell lines expressing potential drug resistant mutant JAK2V617F were generated by retroviral infection, as described previously. […] Polyclonal populations of these cells were used to determine changes in growth in response to various JAK2 inhibitors.

JAK2 = JAK2 (Homo sapiens, UniProt O60674); conditions: cited from earlier work
Chain of JAK2 (O60674 whole entry, species assumed): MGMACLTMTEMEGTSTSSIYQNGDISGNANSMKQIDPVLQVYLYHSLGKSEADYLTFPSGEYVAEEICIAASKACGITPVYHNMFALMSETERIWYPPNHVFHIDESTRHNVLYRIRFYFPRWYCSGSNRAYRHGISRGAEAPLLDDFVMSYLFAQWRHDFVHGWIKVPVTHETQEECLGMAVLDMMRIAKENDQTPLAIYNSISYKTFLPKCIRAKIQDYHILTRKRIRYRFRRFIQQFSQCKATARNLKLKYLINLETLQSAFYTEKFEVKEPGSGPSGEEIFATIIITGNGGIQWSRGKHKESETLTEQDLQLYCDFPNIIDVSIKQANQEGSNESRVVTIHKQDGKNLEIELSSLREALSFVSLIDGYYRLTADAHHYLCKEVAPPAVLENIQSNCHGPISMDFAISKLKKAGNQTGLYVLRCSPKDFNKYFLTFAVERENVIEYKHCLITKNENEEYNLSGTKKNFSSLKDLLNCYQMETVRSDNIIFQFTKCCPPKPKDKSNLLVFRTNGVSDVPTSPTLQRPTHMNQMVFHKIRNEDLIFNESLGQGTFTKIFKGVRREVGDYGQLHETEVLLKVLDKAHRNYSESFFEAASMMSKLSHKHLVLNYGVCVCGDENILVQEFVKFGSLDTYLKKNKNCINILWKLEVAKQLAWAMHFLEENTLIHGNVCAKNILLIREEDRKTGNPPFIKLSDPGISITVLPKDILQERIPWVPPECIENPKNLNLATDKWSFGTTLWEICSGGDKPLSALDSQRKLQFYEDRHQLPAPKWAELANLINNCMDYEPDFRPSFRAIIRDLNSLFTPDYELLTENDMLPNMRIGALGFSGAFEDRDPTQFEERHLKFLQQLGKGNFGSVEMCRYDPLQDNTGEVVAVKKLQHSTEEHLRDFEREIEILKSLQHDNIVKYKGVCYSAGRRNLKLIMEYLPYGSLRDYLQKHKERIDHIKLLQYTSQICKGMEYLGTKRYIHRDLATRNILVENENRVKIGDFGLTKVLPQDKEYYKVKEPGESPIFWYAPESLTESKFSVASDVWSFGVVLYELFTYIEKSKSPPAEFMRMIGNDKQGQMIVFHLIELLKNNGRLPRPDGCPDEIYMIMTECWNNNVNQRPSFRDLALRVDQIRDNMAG

[2] = tested on: BaF3.EpoR cells expressing JAK2V617F with Y931C mutation; assay: Cell growth in response to JAK2 inhibitors, Y931C mutant; format: cell-based, murine
[3] = tested on: BaF3.EpoR cells expressing JAK2V617F with G935R mutation; assay: Cell growth in response to JAK2 inhibitors, G935R mutant; format: cell-based, murine

Cc1cnc(Nc2ccc(OCCN3CCCC3)cc2)nc1Nc1cccc(S(=O)(=O)NC(C)(C)C)c1 [TG101348]
resistance conferred by the mutations (in words) [1]: cross-resistance

C[C@H](Nc1cc(-c2cnn(C)c2)cc(Nc2cnccn2)n1)c1ccc(F)cc1 [NS018]
IC50 (JAK2): < 0.001 µM
selectivity for JAK2 over other JAK-family kinases (JAK2): 30-50 fold

N#CCNC(=O)c1ccc(-c2ccnc(Nc3ccc(N4CCOCC4)cc3)n2)cc1 [CYT-387]
resistance conferred by the mutations (in words) [1]: cross-resistance

Cc1cc(Nc2nc(N[C@@H](C)c3ncc(F)cn3)ncc2Cl)n[nH]1 [AZD1480]
resistance conferred by the mutations (in words) [1]: cross-resistance
increase in EC50 compared to native JAK2V617F [2]: > 7 fold
EC50 ([2]; Mus musculus): > 10 µM
increase in EC50 compared to native JAK2V617F [3]: > 7 fold
EC50 ([3]; Mus musculus): > 10 µM
